Values joined by “and” are separate entries in the source; they are usually repeats but may differ in a detail not shown here. Equal entries are not always repeated.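 Five compound concentrations were applied to cells in 96-well plates for 48 hours; endpoints were derived by simple linear interpolation of the resulting dose-response curve. GI50 = concentration required for 50% inhibition of growth. TGI: concentration producing complete growth inhibition.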
Assays:
Assay in all cases: DTP human tumour cell line panel, 48 h
LXFL 529 NSCLC = tested on: LXFL 529 NSCLC
SNB-78 CNS = tested on: SNB-78 CNS
DMS 273 small cell lung = tested on: DMS 273 small cell lung
RXF-631 renal = tested on: RXF-631 renal
HOP-18 NSCLC = tested on: HOP-18 NSCLC
XF 498 CNS = tested on: XF 498 CNS
KM20L2 colon = tested on: KM20L2 colon
DMS 114 small cell lung = tested on: DMS 114 small cell lung
MDA-N = tested on: MDA-N
SN12K1 renal = tested on: SN12K1 renal

SMILES | TGI (LXFL 529 NSCLC) | TGI (SNB-78 CNS) | TGI (DMS 273 small cell lung) | TGI (RXF-631 renal) [µM] | TGI (HOP-18 NSCLC) | TGI (XF 498 CNS) | TGI (KM20L2 colon) [µM] | TGI (DMS 114 small cell lung) | TGI (MDA-N) | also measured
CC(=O)NNc1nc(C)c(C(/C=C/c2ccc(Cl)cc2)=N\NS(=O)(=O)c2ccc(C)cc2)s1 | > 100 µM | > 100 µM | > 100 µM | > 100 | > 100 µM | > 100 µM | > 100 |  |  | 
CCC(C(=O)[O-])C(=O)[O-].CCC(C(=O)[O-])C(=O)[O-].N.N.NCCCCCN.[Pt+4].[Pt+4] | > 100 µM | > 100 µM | > 100 µM |  | > 100 µM |  | > 100 |  |  | GI50 (LXFL 529 NSCLC): > 100 µM; GI50 (SNB-78 CNS): > 100 µM; GI50 (DMS 273 small cell lung): 95.8 µM; GI50 (HOP-18 NSCLC): > 100 µM; GI50 (KM20L2 colon): > 100 µM
Cc1ccc(S(=O)(=O)CNC(=S)CCCC(=S)NCS(=O)(=O)c2ccc(C)cc2)cc1 | > 100 µM | > 100 µM | > 100 µM | > 100 |  | > 100 µM | > 100 |  |  | 
CC(=O)OCC1OC(OC2CC3C(C)(C)C(OC(C)=O)CC[C@]3(C)C3CCC45CC4(CC[C@H]5C(C)CC(O)C4OC4(C)C)[C@]23C)C(O)C(O)C1O (some centres not stated) | 10.6 µM and 15.2 µM | 13.3 µM and 16.2 µM | 5.76 µM and 4.37 µM | 9.55 | 8.91 µM and 5.96 µM | 3.64 µM and 3.81 µM |  | 5.46 µM and 4.32 µM |  | GI50 (LXFL 529 NSCLC): 3.74 µM; GI50 (SNB-78 CNS): 3.96 µM; GI50 (XF 498 CNS): 1.26 µM; GI50 (KM20L2 colon): > 60 µM
CN(C)C(=O)CC(C(=O)O)c1c[nH]c2ccccc12 (configuration not stated) | > 100 µM |  | > 100 µM | > 100 |  |  | > 100 | > 100 µM |  | 
CCOc1ccccc1NC(=O)CCc1nnc2s/c(=C\CCc3ccccc3)c(=O)n12 | > 100 µM | > 100 µM | > 100 µM |  |  | > 100 µM | > 100 | > 100 µM |  | 
O=C(CC/C(C/C(=N/O)c1ccc(F)cc1)=N/O)N(Cc1ccccc1)Cc1ccccc1 | > 100 µM |  | > 100 µM |  | > 100 µM |  | > 100 | > 100 µM |  | 
NC(=O)N/N=C(\Cc1nc2ccc(C(=O)c3ccccc3)cc2[nH]c1=O)C(=O)Nc1ccc(Br)cc1 | > 100 µM | > 100 µM | > 100 µM |  | > 100 µM | > 100 µM | > 100 | > 100 µM |  | 
Cc1ccc(-c2ccc(Nc3c4ccccc4nc4ccccc34)cc2)cn1 |  |  |  |  |  |  |  |  | 19.6 µM | 
NCCNCC(O)CO (configuration not stated) |  |  |  |  |  |  |  |  | > 100 µM | 
O=C(O)c1cc2ccccc2c(N=Nc2c([N+](=O)[O-])cc([N+](=O)[O-])cc2S(=O)(=O)O)c1O |  |  |  |  |  |  |  |  | > 100 µM | 
Cc1ccc(S(=O)(=O)N2CCC3(C(/C=C/c4ccccc4)=Nc4ccccc43)C2c2ccccc2)cc1 (configuration not stated) | > 100 µM | > 100 µM | > 100 µM |  |  | > 100 µM | > 100 | > 100 µM |  | 
COC(=O)C1=C(C(=O)OC)C23C=CC=CC24C(C(=O)OC)=C(C(=O)OC)C4C1C3 (configuration not stated) | > 100 µM | > 100 µM | > 100 µM |  |  | > 100 µM | > 100 | > 100 µM |  | 
C#CCN1CCN(C(=S)N/N=C(\C)c2ccccn2)CC1 | 18.2 µM | 21.7 µM | 4.57 µM |  | 10.6 µM | 2.72 µM | 15 |  | 3.76 µM and 8.58 µM | GI50 (DMS 273 small cell lung): 0.0092 µM; TGI (SN12K1 renal): 2.22 µM; GI50 (KM20L2 colon): < 0.001 µM
CC1C=C(OC(=O)c2ccccc2)C(=O)C(n2cc(F)c(=O)n(C(=O)c3ccccc3)c2=O)O1 (configuration not stated) |  | > 100 µM | > 100 µM | > 100 | > 100 µM | 73.3 µM | 81.9 | > 100 µM |  | 
CN(C)c1ccc(/C=C2\CNC/C(=C\c3ccc(N(C)C)cc3)C2=O)cc1 | 98.2 µM | > 100 µM | 27.6 µM | 60.7 | 36.8 µM | 48.6 µM | > 100 | 34.7 µM |  | 
NC(=O)c1csc(C2C=CC(CO)O2)n1 (configuration not stated) | > 100 µM | > 100 µM | > 100 µM | > 100 | > 100 µM | > 100 µM | > 100 | > 100 µM |  | 
CC(=O)O[C@H]1[C@@H]2[C@@H]3[C@@H](C[C@H]1C)[C@@H](C)CO[C@@]1(C)CC/C=C(/C)C[C@@H]2O[C@@H]31 | > 100 µM |  | > 100 µM | > 100 | > 100 µM | > 100 µM | > 100 | > 100 µM |  | 
Cc1cc(Cc2cc(C)c(NC(=O)C(=O)C3C(=O)NC(=S)NC3=O)c(C(C)C)c2)cc(C(C)C)c1NC(=O)C(=O)C1C(=O)NC(=S)NC1=O | > 100 µM | > 100 µM | > 100 µM | > 100 | > 100 µM |  | > 100 | > 100 µM |  | 
Cc1ccc(NC(=O)CC(=O)n2nc(-c3ccccc3)c(N=Nc3ccc(Cl)cc3)c2-c2ccccc2)cc1 | > 100 µM | > 100 µM | > 100 µM | > 100 | > 100 µM |  | > 100 | > 100 µM |  | 

SMILES | TGI (LXFL 529 NSCLC) | TGI (SNB-78 CNS) | TGI (DMS 273 small cell lung) | TGI (RXF-631 renal) [µM] | TGI (HOP-18 NSCLC) | TGI (XF 498 CNS) | TGI (KM20L2 colon) [µM] | TGI (DMS 114 small cell lung) | TGI (MDA-N) | also measured
CO[C@H]1[C@H](O)[C@H](O[C@H]2CC[C@@]3(C)[C@H](CC[C@@H]4[C@@H]3CC[C@]3(C)[C@@H](C5=CC(=O)OC5)CC[C@]43O)C2)O[C@@H](C)[C@@H]1O | 0.00658 µM and 0.0128 µM |  | 0.00303 µM | > 100 | 0.00382 µM |  | 0.0118 | 0.00335 µM | < 0.0001 µM | GI50 (RXF-631 renal): > 100 µM
CC12O[C@H](c3ccccc3)[C@H](c3ccccc3)N1C(=O)C1(C(=O)OCc3ccccc3)CC12 (some centres not stated) | > 100 µM |  | > 100 µM | > 100 |  | > 100 µM | > 100 | > 100 µM |  | 
CCOC(OCC)C(CC)[Se]c1ccccc1[N+](=O)[O-] (configuration not stated) | > 100 µM | > 100 µM | 11.3 µM |  | > 100 µM | > 49 µM | 6.36 |  | > 100 µM | 
O=C([O-])c1ccc2c(c1)-c1nc-2nc2[n-]c(nc3nc(nc4[n-]c(n1)c1ccc(C(=O)[O-])cc41)-c1cc(C(=O)[O-])ccc1-3)c1ccc(C(=O)[O-])cc21.[Fe+2] | > 50 µM | > 50 µM | > 50 µM | > 50 | > 50 µM | > 50 µM | > 50 | > 32.6 µM |  | GI50 (LXFL 529 NSCLC): > 41.6 µM; GI50 (DMS 114 small cell lung): > 23.2 µM; GI50 (SNB-78 CNS): > 50 µM; GI50 (DMS 273 small cell lung): > 43.9 µM; GI50 (RXF-631 renal): > 50 µM; GI50 (HOP-18 NSCLC): > 50 µM; GI50 (XF 498 CNS): > 50 µM; GI50 (KM20L2 colon): > 50 µM
Cc1cc(=O)oc2cc(OC(=O)Nc3ccc(Cl)c(Cl)c3)ccc12 |  |  |  |  |  |  |  |  | 54.7 µM | 
N/N=C1\c2ccccc2C2/C(=N\N)c3ccccc3C12 (configuration not stated) | > 100 µM |  | > 100 µM |  | > 100 µM |  | > 100 | > 100 µM |  | 
O=C1CC2CCCCC2=C1O (configuration not stated) | > 100 µM | > 100 µM | > 100 µM | > 100 |  | > 100 µM |  | > 100 µM |  | 
COc1ccc(NC(=O)C(=O)NNC(=O)c2sc(NNC(C)=O)nc2C)c([N+](=O)[O-])c1 | > 100 µM | > 100 µM | > 100 µM |  |  | > 100 µM | > 100 | > 100 µM |  | 
CC1CCCC(C(O)CC2CC(=O)N(c3ccccc3)C(=O)C2)C1=O (configuration not stated) | > 100 µM | > 100 µM | > 100 µM |  | > 100 µM |  | > 100 | > 100 µM |  | 
O=C1C=CC(=O)C1(Br)Br |  |  |  |  |  |  |  |  | 27.5 µM | 
Cc1c(O)c(=O)ccn1C1OC(CO)C(O)C1O (configuration not stated) | > 100 µM | > 100 µM | > 100 µM |  |  | > 100 µM | > 100 |  |  | 
Cn1cc2c(n1)c(N/N=C/c1ccccc1)nn1nnnc21 | > 100 µM | > 100 µM | > 100 µM | > 100 | > 100 µM | > 100 µM | > 100 | > 100 µM |  | 
CCCCn1c2c(c3ccccc3c1=O)C(=O)c1ccccc1-2 |  |  |  |  |  |  |  |  | > 100 µM | 
N#C/C(=C/c1cccnc1)C(=O)c1ccccc1 | > 100 µM | > 100 µM | > 100 µM |  | > 100 µM | > 100 µM | > 100 | > 100 µM |  | 
Cc1cc(N(CCC#N)CCC#N)ccc1/C=C(\NC(=O)/C=C/c1ccccc1)NC(=O)Nc1ccc(Cl)cc1 | > 100 µM |  | > 100 µM |  |  | > 100 µM |  | > 100 µM |  | 
CC[C@@]1(O)C(=O)OCc2c1cc1n(c2=O)Cc2cc3cc(OC)ccc3nc2-1 | 2.51 µM |  | 1.58 µM |  |  |  |  | 1.02 µM | 1.04 µM | 
C/C(=N\NC(=O)CC(=O)Nc1ccc(Cl)cc1)c1cc2ccccc2oc1=O |  |  | > 100 µM |  | > 100 µM | > 100 µM | > 100 | > 100 µM |  | 
CCCCCCCCCCCCCC/C(C(=O)OC)=C(/O)C(=O)OCC | > 100 µM | > 100 µM | > 100 µM | 93.6 | 73.7 µM | 53.8 µM |  | > 100 µM |  | 
N#Cc1c[nH]n2ccnc12 |  |  |  |  |  |  |  |  | > 100 µM | 
O=C1c2cccnc2-c2nc(/C=C/c3ccccc3)cc3c2c1nc1ccccc13 |  |  |  |  |  |  |  |  | 4.15 µM | GI50 (MDA-N): 2.04 µM
